Measurements reported in PMC4245162 (ACS Chemical Biology, 2014).
pIC50: −log10 of the molar value.

Biological target: T1, SETD8 (Homo sapiens, UniProt Q9NQR1)
T1 sequence (Q9NQR1 191-352 isoform Q9NQR1-2): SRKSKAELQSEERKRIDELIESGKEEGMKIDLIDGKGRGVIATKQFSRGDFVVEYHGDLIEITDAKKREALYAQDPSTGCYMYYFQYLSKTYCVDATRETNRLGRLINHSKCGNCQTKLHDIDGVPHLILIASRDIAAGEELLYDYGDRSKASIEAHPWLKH
Test: secondary radiometric filter paper assay, SETD8
Assay type: biochemical
Settings: read-out: IC50 against SETD8; apparent IC50; SAM/peptide/enzyme = 0.75:1.5:1

A pIC50 of 4.09 was found for `O=C1C(SCCO)=C(SCCO)C(=O)c2ccccc21` [NSC95397] in this work.
